Test results taken from US6469028B1, “Synthesis and use of retinoid compounds having negative hormone and/or anatgonist activities” (Allergan, Inc., priority 1995, dated 2002).
One block for each compound: values may come before it.

Key:
[1] = system: 1,25-dihydroxyvitamin D3-dependent gene expression; experiment: Example 14: 1,25-dihydroxyvitamin D3 transactivation, MTV-VDRE-Luc in HeLa cells; type: cell-based; details: 1,25-dihydroxyvitamin D3 alone
Experimental: Hela cells were transfected using the cationic liposome-mediated transfection procedure described by Feigner et al. in Proc. Natl. Acad. Sci. USA 84:7413 (1987). 5×10^4 cells were plated in 12-well multiwell plates and grown in DMEM supplemented with 10% FBS. Cells were cotransfected in serum-free medium using 2 μg/well of LIPOFECTAMINE reagent (Life Technologies, Inc.) with 0.7 μg of the reporter plasmid MTV-VDRE-Luc, containing two copies of the 1,25-dihydroxyvitamin D3 response element [NT] ID NO:4) from the mouse osteopontin gene (Ferrara et al. J. Biol. Chem. 269:2971 (1994)) ligated into the reporter plasmid ΔMTV-Luc (Heyman et al. in Cell 68:397 (1992)), and 0.3 μg of the plasmid pGEM3Z (Pharmacia, Inc.) as carrier DNA to bring the final concentration of DNA to 1.0 μg per well. After six hours of transfection, cells were fed with growth medium containing charcoal extracted FBS at a final concentration of 10%. […] Luciferase activity was measured as described above. This experimental system allowed a convenient method of monitoring and quantitating 1,25-dihydroxyvitamin D3-dependent gene expression.

[2] = system: TPA-induced AP-1 activity; experiment: Example 15: anti-AP-1 activity, Str-AP1-CAT in HeLa cells; type: cell-based; details: 1,25-dihydroxyvitamin D3 alone, 10^−12 to 10^−7 M
Experimental: HeLa cells were transfected with 1 μg of Str-AP1-CAT using LIPOFECTAMINE according to the method described by Nagpal et al. in J. Biol. Chem. 270:923 (1995). Transfected cells were treated with AGN 193109 alone (10^−9 to 10^−7 M), 1,25-dihydroxyvitamin D3 alone (10^−12 to 10^−7 M) or 1,25-dihydroxyvitamin D3 (10^−12 to 10^−7 M) in the presence of 10^−8 M AGN 193109.

[3] = Example 4: retinoid-induced hypertriglyceridemia (serum triglycerides); type: in vivo, rats; details: group C: AGN 191659 3.7 mg/kg oral alone
Experimental: Male Fischer rats (6-7 weeks old, n=5) were treated by intragastric intubation with corn oil (vehicle), AGN 191659, AGN 193109 or a combination of AGN 191659 and AGN 193109. AGN 191659 and AGN 193109 were given as fine suspensions in corn oil.
Serum was separated from blood by low speed centrifugation. Total serum triglycerides (triglycerides plus glycerol) were measured with a standard spectrophotometric endpoint assay available commercially as a kit and adapted to a 96-well plate format. Serum triglyceride levels are expressed as the mean±SD. Means were compared statistically by one-way analysis of variance followed by Dunnett's test if significant differences were found. Differences were considered significant at P<0.05.

[4] = system: RAR-γ-VP-16; experiment: Example 12: assay for retinoid negative hormones, CV-1 cells; type: cell-based; details: 10^−9 to 10^−6 M, 18 hours, no agonist
[5] = target: T1, RARγ (Homo sapiens, UniProt P13631); experiment: [3H]-ATRA displacement assay, baculovirus expressed receptor; type: binding; parameters: made in house; host or cells: baculovirus expression system; details: Table 12; relative affinity, competition of 3H-ATRA binding, Cheng-Prussof equation
T1 sequence (P13631 1-454): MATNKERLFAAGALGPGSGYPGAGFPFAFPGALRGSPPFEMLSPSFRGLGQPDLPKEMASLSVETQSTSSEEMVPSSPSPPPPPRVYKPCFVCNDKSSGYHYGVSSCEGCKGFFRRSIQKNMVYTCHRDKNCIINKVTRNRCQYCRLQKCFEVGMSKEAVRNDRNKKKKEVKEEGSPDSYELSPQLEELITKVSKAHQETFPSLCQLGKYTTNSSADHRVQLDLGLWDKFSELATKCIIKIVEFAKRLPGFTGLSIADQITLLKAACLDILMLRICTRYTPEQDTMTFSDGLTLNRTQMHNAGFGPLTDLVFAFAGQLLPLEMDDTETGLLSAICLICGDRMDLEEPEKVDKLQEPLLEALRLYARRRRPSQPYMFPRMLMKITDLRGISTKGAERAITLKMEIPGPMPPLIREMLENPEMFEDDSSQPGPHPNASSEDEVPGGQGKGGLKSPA

[6] = system: hairless mice; experiment: Example 1: skin irritation by topical agonist, topical antagonist; type: in vivo
Experimental: More particularly skin irritation was measured on a semiquantitative scale by the daily subjective evaluation of skin flaking and abrasions. A single number, the topical irritation score, summarizes the skin irritation induced in an animal during the course of an experiment. The topical irritation score is calculated as follows. The topical irritation score is the algebraic sum of a composite flaking score and a composite abrasion score. The composite scores range from 0-9 and 0-8 for flaking and abrasions, respectively, and take into account the maximum severity, the time of onset, and the average severity of the flaking and abrasions observed.
The severity of flaking is scored on a 5-point scale and the severity of abrasions is scored on a 4-point scale, with higher scores reflecting greater severity. The maximum severity component of the composite scores would be the highest daily severity score assigned to a given animal during the course of observation.
For the time of onset component of the composite score, a score ranging from 0 to 4 is assigned as follows:
The average severity component of the composite score is the sum of the daily flaking or abrasion scores divided by the number of observation days.
To calculate the composite flaking and abrasion scores, the average severity and time of onset scores are summed and divided by 2. The result is added to the maximal severity score. The composite flaking and abrasion scores are then summed to give the overall topical irritation score. Each animal receives a topical irritation score, and the values are expressed as the mean±SD of the individual scores of a group of animals. Values are rounded to the nearest integer.
Female hairless mice [Crl:SKH1-hrBR] […] Treatments are applied to the dorsal skin in a total volume of 4 ml/kg (˜0.1 ml). Mice were observed daily and scored for flaking and abrasions up to and including 3 days after the last treatment, i.e., day 8.

SMILES: C=C1/C(=C\C=C2/CCC[C@]3(C)[C@@H]([C@H](C)CCCC(C)(C)O)CC[C@@H]23)C[C@@H](O)C[C@@H]1O [1,25-dihydroxyvitamin D3, reference compound]
concentration required to produce a luciferase expression of approximately 2,000 rlu [1]: 10^−8 M | repression of TPA-stimulated activity [2]: repressed TPA-stimulated activity only in the 10^−8 and 10^−7 M concentration range

SMILES: C/C(=C\c1ccc(C(=O)O)s1)c1cc2c(cc1C)C(C)(C)CCC2(C)C [AGN 191659, 5-[(E)-2-(5,6,7,8-tetrahydro-3,5,5,8,8-pentamethylnaphthalen-2-yl)propen-1-yl]-2-thiophencarboxylic acid, reference compound]
Serum Triglycerides [3]: 122.5 ± 27.6 mg/dL

SMILES: CC1(C)CC=C(c2ccccc2)c2cc(C#Cc3ccc(C(=O)O)cc3)ccc21 [Compound 60a, 4-[(5,6-dihydro-5,5-dimethyl-8-phenyl-2-naphthalenyl)ethynyl]benzoic acid]
Topical Irritation Score ([6]; group C: AGN 192869 0.06 mg/kg/d + AGN 191183 0.025 mg/kg/d topical, molar ratio 2:1): 5 ± 2 | Topical Irritation Score ([6]; group D: AGN 192869 0.30 mg/kg/d + AGN 191183 0.025 mg/kg/d topical, molar ratio 10:1): 2 ± 1 | Topical Irritation Score ([6]; group E: AGN 192869 1.5 mg/kg/d + AGN 191183 0.025 mg/kg/d topical, molar ratio 50:1): 1 ± 0 | Topical Irritation Score ([6]; group F: AGN 192869 1.5 mg/kg/d topical alone): 0 ± 0

Now from value to compound, other results behind:

Kd [5]: 52 nM
SMILES: CC1(C)CC=C(c2cccs2)c2cc(C#Cc3ccc(C(=O)O)cc3)ccc21 [Compound 34a, 4-[(5,6-dihydro-5,5-dimethyl-8-(2-thienyl)-2-naphthalenyl)ethynyl]benzoic acid]
RAR-γ-VP-16 constitutive activity (negative hormone activity) [4]: did not repress RAR-γ-VP-16 activity

Kd [5]: 30 nM
SMILES: Cc1ccc(C2=CCSc3ccc(C#Cc4ccc(C(=O)O)cc4)cc32)cc1 [Compound 50, 4-[2-(6-(4-(4-methylphenyl)-(2H)-1-benzothiopyranyl))ethynyl]-benzoic acid]
RAR-γ-VP-16 constitutive activity (negative hormone activity) [4]: dose dependent repression of RAR-γ-VP-16 constitutive activity
